Experimental data published in patent publication US20170095512A1, “METHODS OF INDUCING MYELINATION AND MATURATION OF OLIGODENDROCYTES” (KADIMASTEM LTD., priority 2014, published 2017).
“Also recorded” adds a separate entry of the source.

What was measured:
[1] = tested on: glial progenitor cells derived from human ES cells (Olig2 positive cells); assay: hOPC differentiation assay, Olig2 positive cells (immunostaining, high content screening); assay type: cell-based
Protocol: In order to initiate differentiation 20,000 GPCs were seeded in each well of Matrigel coated plates of 96 wells, or on PolyD-Lysine/laminin (PDL/lam)-coated 96 well plates. Cells were grown in GM media for two to three days. Then GM was replaced by differentiation medium without growth factors, (DMEM/F12, 1% B27, 0.5% N2, Vitamin C (Sigma, 50 ug/ml). Differentiation medium was supplemented with the following tested compounds: […] All media were replaced every other day. The oligodendrocyte lineage cells were characterized by the expression of a transcription factor olig2. The rabbit polyclonal AB anti olig2 (Millipore cat AB9610) was added to PFA fixed cells. […] The fixed cells were washed three times in blocking solution, olig2 diluted 1/500, in blocking solution, was added for 1 hour. The fixed cells were washed with PBS 3 times and goat anti rabbit Alexa Fluor 568 1/500 in PBS was added for 45 minutes. The fixed cells were washed three times. ArrayScan VTI HCS reader system (Cellomis, Thermo-scientific) was used for scanning at least 20 fields for each tested well under 10× objective in both assays (differentiation and myelination). Cellomics Neural profiling bio-application was used for processing and analyzing the images. For differentiation assay, the following parameters were tested: number and percentage of O4+ cells, number of processes, processes length and number of branching points. For myelination assay, the same morphological parameters were tested and in addition: areas of myelinated axons in pixels (MBP&NF overlap area) and Number of myelinated regions (MBP&NF overlap count) were also analyzed. Modifications in the Neuro-profiling bio-application were conducted for this specific purpose. T-test analysis was used to compare between treatments. The 4-parameter Hill-Slope curve fittings were generated by GraphPad Prism software using least squares fitting method and EC50 values were calculated. […] The cells at passage five were cultured for three days with GM on 96 well plates and after fixation, cells were reacted with anti-olig2 Ab, and olig2 positive cells and nuclei were scanned in the Thermo Scientific™ ArrayScan™ XTI High Content Analysis (HCA) Reader and counted with the neural profiling program. On the other hand the cells surface antigens O4 and PDGFRa were detected on dissociated cells after fixation and reaction with O4 Ab conjugated to APC, anti PDGFRa PE, as well as A2B5 PE all obtained from BD. Flow cytometry was conducted in BD FACS Canto II. […] Time points used for analysis are 21, 28, 35 and 42 days of differentiation, for each time point 20 fields were analyzed. […] In this experiment, cells at passage 4 were pretreated in differentiation medium with Noggin for 14 days, and split before seeding on 96 well plates.

[2] = tested on: human OPC derived from ES cells (O4+ cells); assay: hOPC differentiation assay, O4+ cells (immunostaining, high content screening); assay type: cell-based
Protocol: In order to initiate differentiation 20,000 GPCs were seeded in each well of Matrigel coated plates of 96 wells, or on PolyD-Lysine/laminin (PDL/lam)-coated 96 well plates. Cells were grown in GM media for two to three days. Then GM was replaced by differentiation medium without growth factors, (DMEM/F12, 1% B27, 0.5% N2, Vitamin C (Sigma, 50 ug/ml). Differentiation medium was supplemented with the following tested compounds: […] All media were replaced every other day. Oligodendrocytes were characterized by the presence of the antigen detected by the monoclonal antibody O4 (IgM (R&D). Living cells reacted with O4 antibody diluted 1/200 in medium without growth factors (50 ul/well) and left for 40 minutes in the incubator at 37° C., washed once with GM, fixed with PFA 4% (170 ul per well) for 20 minutes at room temperature, washed 3 times with PBS. Dapi diluted to 0.5 ug/ml was introduced in the second wash for 10 min Afterwards the preparation was blocked with 5% normal goat serum in PBS-- for 20 min, washed and reacted with goat anti mouse IgM Ab-FITC conjugated (Millipore cat A[…]) diluted 1/500, for 45 minutes at room temperature, and washed three times with PBS--. ArrayScan VTI HCS reader system (Cellomis, Thermo-scientific) was used for scanning at least 20 fields for each tested well under 10× objective in both assays (differentiation and myelination). Cellomics Neural profiling bio-application was used for processing and analyzing the images. For differentiation assay, the following parameters were tested: number and percentage of O4+ cells, number of processes, processes length and number of branching points. For myelination assay, the same morphological parameters were tested and in addition: areas of myelinated axons in pixels (MBP&NF overlap area) and Number of myelinated regions (MBP&NF overlap count) were also analyzed. Modifications in the Neuro-profiling bio-application were conducted for this specific purpose. T-test analysis was used to compare between treatments. The 4-parameter Hill-Slope curve fittings were generated by GraphPad Prism software using least squares fitting method and EC50 values were calculated.

[3] = day 21, Noggin 50 ng/ml + PDGF 20 ng/ml, Dorsomorphin 2 μM, LDN-193189 125 nM

SMILES: c1ccc2c(-c3cnn4cc(-c5ccc(N6CCNCC6)cc5)cnc34)ccnc2c1 [LDN-193189]
- Olig2+ cells number / differentiation (summary statement) [1]: increased the number of O4+ and Olig2+ cells; also recorded: stimulates the formation of olig2 positive cells
- EC50 ([1]; 21 days, differentiation medium without noggin, with or without PDGF (20 ng/ml), read-out: EC50 (percentage of olig2 positive cells)): ~0.03 µM
- number / percentage of Olig2+ cells (hOPC commitment) [1, 3]: increased the number of Olig2+
- conversion of neural stem cells to Olig2 positive cells ([1]; days 21, 28, 35, 42, noggin 100 ng/ml, LDN-193189 62.5 nM and 125 nM): stimulate the conversion of neural stem cells to Olig2 positive cells
- O4+ cells number / conversion of Olig2+ cells into O4+ cells (summary statement) [2]: increased the number of O4+ and Olig2+ cells; also recorded: stimulates
- number of O4+ cells [2, 3]: increase in the number of O4+ cells
- number of processes per cell ([2]; dose dependent manner): increased
- total length of processes ([2]; dose dependent manner): increased
